Measured values from ChEMBL document CHEMBL1159194, “Two pimarane diterpenoids from Ephemerantha lonchophylla and their evaluation as modulators of the multidrug resistance phenotype” (J Nat Prod, 1998).
Active and inactive are the calls of the source. The calls are words filed in the database; no cut-off is given here.

Experiments:
[1] = target: ATP-dependent translocase ABCB1 (Homo sapiens, UniProt P08183); test: Inhibition of human MDR1 expressed in mouse B16/F10 cells assessed as increase in doxorubicin accumulation by fluorimetry; type: cell-based; conditions: read-out: ED50 (the source's name)
ATP-dependent translocase ABCB1, sequence (P08183 whole entry): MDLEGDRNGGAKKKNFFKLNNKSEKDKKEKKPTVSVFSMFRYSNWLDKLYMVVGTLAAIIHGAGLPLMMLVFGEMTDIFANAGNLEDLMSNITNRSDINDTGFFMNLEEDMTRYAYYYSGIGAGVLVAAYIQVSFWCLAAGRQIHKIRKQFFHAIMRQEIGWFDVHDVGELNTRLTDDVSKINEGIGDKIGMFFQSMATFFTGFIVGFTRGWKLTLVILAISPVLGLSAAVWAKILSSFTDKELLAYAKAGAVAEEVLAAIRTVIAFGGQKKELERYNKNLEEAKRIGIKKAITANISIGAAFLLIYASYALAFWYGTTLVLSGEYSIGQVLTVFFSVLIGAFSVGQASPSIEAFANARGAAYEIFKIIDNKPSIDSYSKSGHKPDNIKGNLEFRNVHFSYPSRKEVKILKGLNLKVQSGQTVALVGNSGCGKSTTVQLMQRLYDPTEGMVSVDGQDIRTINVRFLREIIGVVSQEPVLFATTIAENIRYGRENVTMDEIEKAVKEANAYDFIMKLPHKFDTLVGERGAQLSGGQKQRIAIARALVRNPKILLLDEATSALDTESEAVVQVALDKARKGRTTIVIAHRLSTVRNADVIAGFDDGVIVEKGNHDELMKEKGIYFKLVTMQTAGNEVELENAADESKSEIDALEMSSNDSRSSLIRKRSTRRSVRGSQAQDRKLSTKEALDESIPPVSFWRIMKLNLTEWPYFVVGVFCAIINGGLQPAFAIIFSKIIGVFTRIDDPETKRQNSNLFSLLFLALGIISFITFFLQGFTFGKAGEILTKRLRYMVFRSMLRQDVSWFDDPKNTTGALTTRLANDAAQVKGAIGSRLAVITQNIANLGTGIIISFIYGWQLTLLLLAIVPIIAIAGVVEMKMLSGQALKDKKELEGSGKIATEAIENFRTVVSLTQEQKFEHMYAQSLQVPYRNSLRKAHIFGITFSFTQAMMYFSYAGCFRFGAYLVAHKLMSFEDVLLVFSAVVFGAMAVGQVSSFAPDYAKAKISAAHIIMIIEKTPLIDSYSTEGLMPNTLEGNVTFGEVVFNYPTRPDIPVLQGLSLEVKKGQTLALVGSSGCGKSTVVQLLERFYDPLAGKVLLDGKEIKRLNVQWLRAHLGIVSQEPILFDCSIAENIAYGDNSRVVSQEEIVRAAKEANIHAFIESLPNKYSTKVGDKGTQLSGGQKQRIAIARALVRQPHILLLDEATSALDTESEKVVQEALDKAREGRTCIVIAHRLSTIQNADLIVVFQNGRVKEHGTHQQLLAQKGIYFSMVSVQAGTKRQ

B16-F10 = test: Effect on doxorubicin accumulation in mouse B16/F10 cells by fluorimetry; type: functional, cell-based

Row | SMILES | EC50 [1] [µM] | Activity (B16-F10)
1 | CC1(C)C(=O)C(O)=C[C@]2(C)[C@H]3CC[C@@](C)(C(=O)CO)C=C3CC[C@@H]12 [LONCHOPHYLLOID A] | 193 | inactive
2 | CC1(C)[C@@H](O)CC[C@]2(C)[C@H]3CC[C@@](C)(C(=O)CO)C=C3CC[C@@H]12 [LONCHOPHYLLOID B] | 195 | inactive
